Results reported in US20090215804A1, “FUMARATE OF 4- [[4- [[4- (2-CYANOETHENYL) -2,6-DIMETHYLPHENYL)AMINO] -2-PYRIMIDINYL]AMINO]BENZONITRILE” (priority 2004, published 2009).
Values after ≈ are worked out from the molar mass of the structure shown. Where two headings read alike, the source gives them in different places.

Experiments:
[1] = test system: HIV; conditions: wild type of HIV as well as drug and multi drug resistant strains of HIV; cited from earlier work
[2] = Chemical stability: storage at different humidity and temperature, HPLC for percentage of impurities; format: physicochemical
Experimental: Compound (I-a) was stored under different conditions of humidity and temperature. After storage, the salt was analyzed by High Performance Liquid Chromatography (HPLC) for percentage of impurities.

[3] = Solubility data; format: physicochemical
Excerpt: Table 1 lists solubility data of free base (E) 4-[[4-[[4-(2-cyanoethenyl)-2,6-dimethylphenyl]amino]-2-pyrimidinyl]amino]benzonitrile and of the compound of formula (I-a).

[4] = Hygroscopicity; format: physicochemical
[5] = Physical stability of the crystal structure after storage, infrared spectroscopy; format: physicochemical; conditions: six weeks storage, conditions of Table 2, infrared spectroscopy
Experimental: The stability of the crystal structure of the compound of formula (I-a) was studied after storage for a period of six weeks under different conditions of humidity and temperature. The same conditions as described in Table 2 were applied. After storage the compound was analyzed with infrared spectroscopy.

[6] = BCS classification; format: physicochemical
Excerpt: A scientific framework for classifying drug substances based on their aqueous solubility and intestinal permeability is the Biopharmaceutics Classification System or BCS. […] Free base and fumarate salt may be classified as BCS class 2 compounds.

SMILES: Cc1cc(C=CC#N)cc(C)c1Nc1ccnc(Nc2ccc(C#N)cc2)n1 [4-[[4-[[4-(2-cyanoethenyl)-2,6-dimethylphenyl]amino]-2-pyrimidinyl]amino]-benzonitrile]
- HIV replication inhibiting activity [1]: excellent

SMILES: Cc1cc(/C=C/C#N)cc(C)c1Nc1ccnc(Nc2ccc(C#N)cc2)n1 [Compound of formula (I-a)]
- Sum of impurities % ([2]; 40° C./75% RH, 4 weeks): 0.62 %, w/w
- Sum of impurities % ([2]; 40° C./75% RH, 8 weeks): 0.61 %, w/w
- Sum of impurities % ([2]; 50° C./air, 4 weeks): 0.62 %, w/w
- Sum of impurities % ([2]; 50° C./air, 8 weeks): 0.61 %, w/w
- Sum of impurities % ([2]; RT/56% RH, 4 weeks): 0.58 %, w/w
- Sum of impurities % ([2]; RT/56% RH, 8 weeks): 0.64 %, w/w
- Sum of impurities % ([2]; RT/75% RH, 4 weeks): 0.59 %, w/w
- Sum of impurities % ([2]; RT/75% RH, 8 weeks): 0.65 %, w/w
- Sum of impurities % ([2]; RT/<5% RH, 4 weeks): 0.61 %, w/w
- Sum of impurities % ([2]; RT/<5% RH, 8 weeks): 0.62 %, w/w
- Sum of impurities % ([2]; Reference, 1 week): 0.58 %, w/w
- chemical stability (in words) ([2]; storage conditions of Table 2): chemically stable
- Concentration in mg/ml, 0.01 N HCl ([3]; solubility in 0.01 N HCl): 0.013 mg/mL
- solubility ([3]; water, solubility in water, read-out: Concentration in mg/ml, Water): 0.0009 mg/mL
- solubility in water and in HCl (in words) ([3]; water): poor solubility
- hygroscopicity [4]: not hygroscopic
- stability of the crystal structure [5]: No changes in crystal structure were observed
- BCS class [6]: BCS class 2

SMILES: Cc1cc(/C=C/C#N)cc(C)c1Nc1ccnc(Nc2ccc(C#N)cc2)n1 [Free base (E-isomer), (E) 4-[[4-[[4-(2-cyanoethenyl)-2,6-dimethylphenyl]amino]-2-pyrimidinyl]amino]benzonitrile]
- solubility ([3]; 0.01 N HCl, simulated gastric fluid, solubility in 0.01 N HCl, read-out: Concentration in mg/ml, 0.01 N HCl): 0.019 mg/mL (≈ 51.9 µM)
- Concentration in mg/ml, PEG 400 ([3]; solubility in PEG 400): 40 mg/mL
- Concentration in mg/ml, Water ([3]; solubility in water): 0.00002 mg/mL
- solubility in water and in HCl (in words) ([3]; water): poor solubility
- BCS class [6]: BCS class 2
